Measurements taken from patent US11524950B2, “Treatment of immune-related and inflammatory diseases” (Celgene Corporation, priority 2012, dated 2022).

Key:
CD83 = CD83 expression in B cell differentiation culture (flow cytometry); assay type: cell-based, human
Description: (§1) Immunophenotyping For Flow Cytometric Analysis: Cells were stained using multicolor direct immunofluorescence stain for flow cytometric analysis. Surface staining was performed before cell fixation and permeabilization. Cells (50 μl; 1×10^6 cells/ml in washing buffer, 2% FBS with 0.1% NaN3 in PBS) were used for each staining. The cells were stained with isotype control mAb ([…]) and multicolor FITC-conjugated anti-CD20 mAb and PE-conjugated anti-CD38 mAb, or PerCP-Cy5.5 conjugated anti-CD44 mAb, PE-conjugated anti-CD83 mAb were used for day 4 activated B cells (CD20+CD38-cells), and day 4 PBs and day 7 PBs (CD20-CD38+), and other staining, analyzed by flow cytometry as per manufacturer's instructions. The intracellular staining of transcription factor proteins (BCL-6, IRF-4, BLIMP-1, PAX-5 and XBP-1) and IgJ was performed according to the manufacturer's recommendations. Flow cytometric analysis was performed with a FACSCanto using FACSDiva 6 (BD Biosciences). For data analysis, Flowjo (Tree Star) software was used.
Using the same B cells in vitro differentiation system, the activity of the test compound on CD44 and CD83 expression in B cell differentiation was further investigated. Multicolor FITC-conjugated anti-CD20 mAb, PerCP Cy5.5-conjugated anti-CD44 mAb and PE-conjugated anti-CD83 mAb are used for day 4 and day 7 cells. The effect of the test compound was evaluated from 3 separate experiments representative of 3 donors.

DBA/2 mice = assay: Bleomycin-induced dermal fibrosis mouse model (prevention); assay type: in vivo; details: 30 mg/kg, PO, QD
Description: DBA/2 mice were used in this study. Eight animals were used per treatment group in the study. Mice were kept in the animal house under standard conditions with food and water ad libidum.
The vehicle, 0.5% carboxymethyl cellulose (CMC)/0.25% Tween 80, was prepared in distilled H2O and dissolved overnight on a magnetic stirrer (add 0.5 g CMC; Sigma #C9481) and 0.25 ml Tween 80 (Sigma #P8074) to 99.75 ml to make a total of 100 ml 0.5% CMC/0.25% Tween 80).
The compound was suspended, not dissolved, in this vehicle. The formulation was homogenized with a Teflon pestle and mortar (Potter-Elvehjem tissue grinder) using a motorized Eberbach tissue homogenizer. The daily drug stock concentration used in these studies was 3 mg/ml.
Bleomycin was obtained from the pharmacy of the University of Erlangen-Nuremberg and freshly prepared once a week. Skin fibrosis was induced in 6-week-old DBA mice by local intracutaneous injections of 100 μl of bleomycin dissolved in 0.9% NaCl, at a concentration of 0.5 mg/ml, every other day in defined areas of 1.5 cm^2 on the upper back.
The mouse model of bleomycin induced dermal fibrosis is widely used to evaluate anti-fibrotic therapeutics. In this model, a localized dermal fibrosis is induced by intradermal injections with bleomycin every other day for 3 weeks. This model resembles early, inflammatory stages of SSc. To evaluate potential effects on prevention of fibrosis, treatment was initiated simultaneously with the first bleomycin injection. […] Treatment consisted of administration of the vehicle (0.5% CMC/0.25% Tween 80). • Untreated bleomycin group: Intradermal injection of bleomycin for three weeks. […] Injection of Imatinib (50 mg/kg; IP, QD). […] See Akhmetshina A. et al., Arthritis Rheum 2009; 60(1):219-224.
Dermal thickness was determined by staining with hematoxylin and eosin and activated fibroblasts by using immunohistochemistry for alpha smooth muscle actin (α-SMA). The dermal thickness, as determined by the modified Rodnan Skin Score, is currently the most common primary outcome in human clinical trials for anti-fibrotic agents in SSc. […] Dermal thickness was analyzed with a Nikon Eclipse 80i microscope (Nikon, Badhoevedorp, The Netherlands) by measuring the maximal distance between the epidermal-dermal junction and the dermal-subcutaneous fat junction at 4 different skin sections in each mouse. […]
For quantification of myofibroblasts, skin sections were deparaffinized and incubated with 5% bovine serum albumin for 60 minutes. Cells positive for α-SMA were detected by incubation with monoclonal anti-α-SMA antibodies (clone 1A4; Sigma-Aldrich, Steinheim, Germany) for 2 hours at room temperature followed by incubation with 3% hydrogen peroxide for 10 minutes. […]

IgJ = assay: Ig J chain intracellular staining in B cell differentiation culture; assay type: cell-based, human
Description: as §1
High level IgJ chain expression in rheumatoid arthritis (RA) patients predicts lack of response to rituximab.

## O=C1CC[C@H](N2Cc3c(OCc4ccc(CN5CCOCC5)cc4)cccc3C2=O)C(=O)N1 [Test compound, (S)-3-[4-(4-morphlin-4-ylmethylbenzyloxy)-1-oxo-1,3-dihydro-isoindo-2-yl]piperidine-2,6-dione]
CD83
  total CD83+ cell population: significantly increased
CD83; Day 4, 2 nM, DMSO 13.4%±2.4%
  percentage of CD83+ cells: 24.1%
CD83; Day 4, 20 nM, DMSO 13.4%±2.4%
  percentage of CD83+ cells: 40.2%
CD83; Day 4, 200 nM, DMSO 13.4%±2.4%
  percentage of CD83+ cells: 49.5%
CD83; Day 7, 2 nM, DMSO […]±3.3
  percentage of CD83+ cells: 16.3%
CD83; Day 7, 20 nM, DMSO […]±3.3
  percentage of CD83+ cells: 36.1%
CD83; Day 7, 200 nM, DMSO […]±3.3
  percentage of CD83+ cells: 51.9%
DBA/2 mice; 3 weeks, p<0.001
  prevention of dermal thickening: approximately 25±0.49%
DBA/2 mice; p<0.05
  reduction of number of α-SMA+ myofibroblasts: 24±0.09%
IgJ
  MFI of IgJ within the positive cells: decreased
IgJ; Day 4, 20 nM, DMSO 13.1%±1.5%
  number of IgJ-positive cells: 8.4%
IgJ; Day 4, 200 nM, DMSO 13.1%±1.5%
  number of IgJ-positive cells: 5.4%
IgJ; Day 4 B cell differentiation cultures, three donors
  Ig J chain expression: dose-dependently and significantly reduced
IgJ; Day 7, 20 nM, DMSO 14.4%±4.3
  number of IgJ-positive cells: 13.2%
IgJ; Day 7, 200 nM, DMSO 14.4%±4.3
  number of IgJ-positive cells: 7.2%
